The record followed here is PMC6149853, “Species-Specific Inactivation of Triosephosphate Isomerase from Trypanosoma brucei: Kinetic and Molecular Dynamics Studies” (Molecules : A Journal of Synthetic Chemistry and Natural …, 2017).

The target in experiment [1] is T1, HsTIM (human triosephosphate isomerase) (Homo sapiens, UniProt P60174).
T1 construct: gene TPI1
The experiment is described as follows: residual activity after […] h preincubation; alpha-GPDH coupled assay, NADH at […] nm. The class given is biochemical. As to conditions: 5 µg/mL enzyme preincubated with compound 2 h at 36 °C, 10% DMSO, 10 mM EDTA, pH 7.4; assay 1 mM GAP, 25 °C.

The target of experiment [2] is T2, TbTIM (triosephosphate isomerase from Trypanosoma brucei) (Trypanosoma brucei, UniProt P04789).
T2 construct: homodimer; 250 residues per monomer
T2 sequence (P04789 whole entry): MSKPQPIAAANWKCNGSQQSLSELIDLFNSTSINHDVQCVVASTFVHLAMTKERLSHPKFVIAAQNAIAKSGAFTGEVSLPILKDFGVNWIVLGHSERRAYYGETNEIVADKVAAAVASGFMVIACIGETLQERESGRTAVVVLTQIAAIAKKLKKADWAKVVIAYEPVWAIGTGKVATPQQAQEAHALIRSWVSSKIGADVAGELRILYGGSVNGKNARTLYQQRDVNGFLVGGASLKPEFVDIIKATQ
The experiment is described as above. It is filed as biochemical. As to conditions: read-out: I50.

T1 sequence (P60174 2-249): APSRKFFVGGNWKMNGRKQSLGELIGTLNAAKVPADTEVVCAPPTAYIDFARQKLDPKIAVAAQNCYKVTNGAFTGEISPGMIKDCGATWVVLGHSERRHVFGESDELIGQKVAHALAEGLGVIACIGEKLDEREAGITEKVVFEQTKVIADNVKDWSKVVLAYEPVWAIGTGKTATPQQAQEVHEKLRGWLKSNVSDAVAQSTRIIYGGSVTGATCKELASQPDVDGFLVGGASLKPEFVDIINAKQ

With `COC(=O)Nc1nc2cc(Oc3cccc4ccccc34)ccc2[nH]1` [compound 1, Methyl(5-(naphthalen-1-yloxy)-1H-benzimidazol-2-yl)carbamate], in experiment [1], the “% inactivation at 100 μM” value worked out at 12%. Besides, the IC50 in experiment [2] was found to be 84 µM.

Consider `CSc1nc2ccc(C(=O)N/N=C/c3ccc([N+](=O)[O-])o3)cc2[nH]1` [compound 3, (E)-2-(Methylthio)-N′-((5-nitrofuran-2-yl)methylene)-1H-benzimidazole-5-carbohydrazide], for which the IC50 in experiment [2] is 73 µM.

As for `COC(=O)Nc1nc2cc(Oc3ccc(Cl)c4ccccc34)ccc2[nH]1` [compound 2, Methyl(5-((4-chloronaphthalen-1-yl)oxy)-1H-benzimidazol-2-yl)carbamate], in experiment [1], the “% inactivation at 100 μM” value is recorded as 23%. Besides, the IC50 in experiment [2] was 82 µM.
